# System: 695427-040-R-J1-PDC complex spheroids, viability percent T/C
# Assay: Anticancer human tumor 695427-040-R-J1-PDC patient-derived colon adenocarcinoma cell line growth inhibition [GQUAD]
# Details: for IC50: curve of first compound; for viability, T/C: stronger effect = lower value
# Source text: DNA G-quadruplex Stabilizer Agents in Combinations in Complex Spheroids
# A high-throughput screen of multi-cell type tumor spheroids was designed to identify active combinations of DNA G-quadruplex stabilizer agents and targeted small molecules. Complex spheroids include a stromal component modeled by human endothelial cells (HUVEC) and fibroblasts modeled by human mesenchymal stem cells (MSCs). The concentration ranges selected for each drug and investigational agent were based upon clinically achievable concentrations if the clinical Cmax of the agent was known.
# Compounds. The drugs and investigational agents: pidnarulex (CX-5461; NSC782164), APTO-253 (NSC789042), BRACO-19 (NSC847499), peposertib (NSC802822), ceralasertib (NSC780249), elimusertib (NSC800525), camonsertib (NSC841442), AZD-1390 (NSC803789), olaparib (NSC753686), talazoparib (NSC767125), ART-558 (NSC835418), sotorasib (NSC818433), MRTX-1133 (NSC836407), SN-38 (NSC673596), topotecan (NSC609699), etoposide (NSC141540), doxorubicin (NSC123127), gemcitabine (NSC613327), 5-fluorouracil (NSC19893), paclitaxel (NSC125973), vemurafenib (NSC761431), panobinostat (NSC761190), R-306465 (JNJ-16241199; NSC773264), adavosertib (NSC754352), TP-3654 (NSC805149), carboplatin (NSC241240), KSQ-4279 (NSC840948), and staurosporine (NSC755774) were obtained from the National Cancer Institute (NCI) Developmental Therapeutics Program Chemical Repository (34). The FDA-approved anticancer drug set is available from the NCI Developmental Therapeutics Program. […] The stock solutions were prepared in dimethyl sulfoxide (DMSO, Sigma-Aldrich, St. Louis, MO, cat. D2650) at 800-fold the tested concentration and stored at -70 degrees C prior to their use. All drugs and investigational agents were tested over a range starting from a high concentration at or near the clinical Cmax and decreasing in half-log increments. If the clinical Cmax for an agent had not been determined, the highest concentration tested was 10 microM.
# 2.3 Cell Culture. All cells were maintained in an incubator at 37 degrees C and 5% CO2 with 95% humidity. The PDC lines were cultured according to standard operating procedures established by the NCI PDMR. All PDCs were thawed and cultured in Matrigel-coated flasks prepared with a working solution of 1X Ham's F-12 nutrient mix, without supplementation (Invitrogen, cat. 11765054), 100 U/mL penicillin-streptomycin (Invitrogen, cat. 15140122), and 2.5% Matrigel (Corning Inc., cat. 354248) for the first three passages. The 857933-349-R-J2-PDC line was cultured in 6C/Colon 1B media, which includes advanced DMEM/F-12 (Thermo Fisher Scientific, cat. 12634028), 10 mM HEPES (Thermo Fisher Scientific, cat. 15630080), 1X GlutaMAX supplement (Thermo Fisher Scientific, cat. 35050061), 0.1 mg/mL primocin (InvivoGen, cat. ant-pm-2), 10% defined fetal bovine serum, heat inactivated (HyClone Laboratories Inc., cat. SH30070.03HI), 50% L-WRN conditioned media (ATCC, cat. CRL-3276), 1.25 mM N-Acetyl-L-cysteine (Sigma-Aldrich, cat. A9165), 10 mM nicotinamide (Sigma-Aldrich, cat. N0636), 1X B-27 supplement (Thermo Fisher Scientific, cat. 17504044), 1X N-2 supplement (Thermo Fisher Scientific, cat. 17502048), 10 microM Y-27632 dihydrochloride (Tocris Bioscience, cat. 1254), and 50 ng/mL human EGF recombinant protein (Thermo Fisher Scientific, cat. PHG0311). The 485176-168-R4-J1-PDC line was cultured in Panc media, which includes all 6C/Colon 1B media components plus 100 ng/mL human FGF-10 (Thermo Fisher Scientific, cat. 100-26), 500 nM SB-431542 (Selleckchem, cat. S1067), and gastrin (Tocris, cat. 3006).
# […]
# 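Further: spheroids exposed to compounds for seven days before readout.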
structure (smiles),measurement,setting,value
COc1ncnc(C2CC2)c1-c1ncc2cnn(Cc3ccc(-c4nc(C(F)(F)F)cn4C(C)C)cc3)c2n1 + CN(C)c1ccc(Nc2c3ccc(NC(=O)CCN4CCCC4)cc3nc3cc(NC(=O)CCN4CCCC4)ccc23)cc1,IC50,second compound 0.0316 µM,> 10 µM
same,IC50,second compound 0.1 µM,> 10 µM
same,IC50,second compound 0.316 µM,> 10 µM
same,IC50,second compound 1 µM,> 10 µM
same,IC50,second compound 3.16 µM,> 10 µM
same,IC50,second compound 10 µM,> 10 µM
same,"viability, T/C","second compound 0.0316 µM, first compound 0.0316 µM",101%
same,"viability, T/C","second compound 0.0316 µM, first compound 0.1 µM",92.4%
same,"viability, T/C","second compound 0.0316 µM, first compound 0.316 µM",91.7%
same,"viability, T/C","second compound 0.0316 µM, first compound 1 µM",96.4%
same,"viability, T/C","second compound 0.0316 µM, first compound 3.16 µM",105%
same,"viability, T/C","second compound 0.0316 µM, first compound 10 µM",102%
same,"viability, T/C","second compound 0.1 µM, first compound 0.0316 µM",105%
same,"viability, T/C","second compound 0.1 µM, first compound 0.1 µM",95.4%
same,"viability, T/C","second compound 0.1 µM, first compound 0.316 µM",91.1%
same,"viability, T/C","second compound 0.1 µM, first compound 1 µM",93.2%
same,"viability, T/C","second compound 0.1 µM, first compound 3.16 µM",101%
same,"viability, T/C","second compound 0.1 µM, first compound 10 µM",101%
same,"viability, T/C","second compound 0.316 µM, first compound 0.0316 µM",97.7%
same,"viability, T/C","second compound 0.316 µM, first compound 0.1 µM",97.5%
same,"viability, T/C","second compound 0.316 µM, first compound 0.316 µM",88.9%
same,"viability, T/C","second compound 0.316 µM, first compound 1 µM",94.3%
same,"viability, T/C","second compound 0.316 µM, first compound 3.16 µM",96.1%
same,"viability, T/C","second compound 0.316 µM, first compound 10 µM",83.1%
same,"viability, T/C","second compound 1 µM, first compound 0.0316 µM",96.7%
same,"viability, T/C","second compound 1 µM, first compound 0.1 µM",93.7%
same,"viability, T/C","second compound 1 µM, first compound 0.316 µM",91.5%
same,"viability, T/C","second compound 1 µM, first compound 1 µM",91.3%
same,"viability, T/C","second compound 1 µM, first compound 3.16 µM",101%
same,"viability, T/C","second compound 1 µM, first compound 10 µM",93.3%
same,"viability, T/C","second compound 3.16 µM, first compound 0.0316 µM",93.9%
same,"viability, T/C","second compound 3.16 µM, first compound 0.1 µM",91.7%
same,"viability, T/C","second compound 3.16 µM, first compound 0.316 µM",84.9%
same,"viability, T/C","second compound 3.16 µM, first compound 1 µM",96.6%
same,"viability, T/C","second compound 3.16 µM, first compound 3.16 µM",99%
same,"viability, T/C","second compound 3.16 µM, first compound 10 µM",92.9%
same,"viability, T/C","second compound 10 µM, first compound 0.0316 µM",83.3%
same,"viability, T/C","second compound 10 µM, first compound 0.1 µM",80.6%
same,"viability, T/C","second compound 10 µM, first compound 0.316 µM",85.5%
same,"viability, T/C","second compound 10 µM, first compound 1 µM",80.8%
same,"viability, T/C","second compound 10 µM, first compound 3.16 µM",79.7%
same,"viability, T/C","second compound 10 µM, first compound 10 µM",75%

# From PubChem BioAssay AID2060492 (Molecular Pharmacology Branch, DTP, NCI, 2025)
